Laboratory results taken from ChEMBL document CHEMBL1134254, “Syntheses of certain 3-aryl-2-propenoates and evaluation of their cytotoxicity” (Bioorg Med Chem Lett, 2001).
Values after ≈ are worked out from the molar mass of the structure shown. Values belong to the compound of their own block, whether it stands above or below them.

Key:
[1] = test system: B16; assay: Inhibitory concentration against B16 murine melanoma cell line; settings: Mus musculus
[2] = test system: A-431; assay: cells; settings: Homo sapiens
Description: Inhibitory concentration required against A 431 human epidermoid carcinoma cell line

[3] = test system: HCT-116; assay: cells; settings: Homo sapiens
Description: Inhibitory concentration against HCT 116 human colon cancer cell line

[4] = test system: SNB-19; assay: Inhibitory concentration required against SNB19 CNS cancer cell line; format: functional, cell-based; settings: Homo sapiens
[5] = test system: HT-29; assay: Inhibitory concentration required against HT 29 colon cancer cell line; settings: Homo sapiens
[6] = test system: HCT-15; assay: Inhibitory concentration required against HCT 15 colon cancer cell line; settings: Homo sapiens
[7] = test system: LOX IMVI; assay: Inhibitory concentration required against LOX-IMVI melanoma cell line; settings: Homo sapiens
[8] = test system: SW-620; assay: Inhibitory concentration required against SW620 colon cancer cell line; settings: Homo sapiens
[9] = test system: PC-3; assay: Inhibitory concentration required against PC-3 prostate cancer cell line; settings: Homo sapiens
[10] = test system: UACC-62; assay: Inhibitory concentration required against UACC62 melanoma cell line; settings: Homo sapiens
[11] = test system: A549; assay: cells; settings: Homo sapiens
Description: Inhibitory concentration required against A 549 lung cancer cell line

[12] = test system: MCF7; assay: Inhibitory concentration required against MCF-7 breast cancer cell line; format: functional, cell-based; settings: Homo sapiens
[13] = test system: NCI-H23; assay: Inhibitory concentration required against NCI-H23 lung cancer cell line; settings: Homo sapiens
[14] = test system: MDA-MB-231; assay: cells; settings: Homo sapiens
Description: Inhibitory concentration required against MDA-MB-231 breast cancer cell line

[15] = test system: HCC 2998; assay: Inhibitory concentration required against HCC2998 colon cancer cell line; settings: Homo sapiens
[16] = test system: ACHN; assay: Inhibitory concentration required against ACHN renal cancer cell line; settings: Homo sapiens
[17] = test system: COLO 205; assay: cells; settings: Homo sapiens
Description: Inhibitory concentration required against COLO 205 colon cancer cell line

[18] = test system: DLD-1; assay: Inhibitory concentration required against DLD-1 colon cancer cell line; settings: Homo sapiens

IC50 [1]: 30.1 µg/mL (≈ 155 µM) | IC50 [2]: > 30 µg/mL | IC50 [3]: > 30 µg/mL
SMILES: COC(=O)/C=C\c1cc(O)ccc1O

IC50 [1]: 0.12 µg/mL (≈ 0.618 µM) | IC50 [4]: 2.59 µg/mL (≈ 13.3 µM) | IC50 [5]: 1.1 µg/mL (≈ 5.66 µM) | IC50 [6]: 0.27 µg/mL (≈ 1.39 µM) | IC50 [7]: 0.28 µg/mL (≈ 1.44 µM) | IC50 [8]: 0.39 µg/mL (≈ 2.01 µM) | IC50 [9]: 0.42 µg/mL (≈ 2.16 µM) | IC50 [10]: 0.56 µg/mL (≈ 2.88 µM) | IC50 [11]: 7.81 µg/mL (≈ 40.2 µM) | IC50 [12]: 0.37 µg/mL (≈ 1.91 µM) | IC50 [13]: 0.93 µg/mL (≈ 4.79 µM) | IC50 [2]: 0.15 µg/mL (≈ 0.772 µM) | IC50 [14]: 0.82 µg/mL (≈ 4.22 µM) | IC50 [15]: 5.22 µg/mL (≈ 26.9 µM) | IC50 [16]: 0.73 µg/mL (≈ 3.76 µM) | IC50 [17]: 0.97 µg/mL (≈ 5 µM) | IC50 [3]: 0.17 µg/mL (≈ 0.875 µM) | IC50 [18]: 0.68 µg/mL (≈ 3.5 µM)
SMILES: COC(=O)/C=C/c1cc(O)ccc1O

IC50 [1]: > 30 µg/mL | IC50 [2]: > 30 µg/mL | IC50 [3]: > 30 µg/mL
SMILES: COC(=O)/C=C/c1cc(OC)ccc1OC

IC50 [1]: 2.96 µg/mL (≈ 15.2 µM) | IC50 [2]: 1.79 µg/mL (≈ 9.22 µM) | IC50 [3]: 3.01 µg/mL (≈ 15.5 µM)
SMILES: COC(=O)/C=C/c1ccc(O)c(O)c1 [METHYLCAFFEATE]

IC50 [1]: 25.9 µg/mL (≈ 124 µM) | IC50 [2]: > 30 µg/mL | IC50 [3]: 27.5 µg/mL (≈ 132 µM)
SMILES: COC(=O)/C=C/c1ccc(OC)c(O)c1

IC50 [1]: > 30 µg/mL | IC50 [2]: > 30 µg/mL | IC50 [3]: > 30 µg/mL
SMILES: COC(=O)/C=C/c1ccc2c(c1)OCO2

IC50 [1]: > 30 µg/mL | IC50 [2]: > 30 µg/mL | IC50 [3]: > 30 µg/mL
SMILES: COC(=O)/C=C/c1cc(OC)c2c(c1OC)C(=O)c1ccccc1C2=O

IC50 [1]: > 30 µg/mL | IC50 [2]: > 30 µg/mL | IC50 [3]: > 30 µg/mL
SMILES: COC(=O)/C=C/c1ccc(OC)c(OC)c1

The remaining lines, values behind:

SMILES: CCOC(=O)/C=C/c1ccc(O)c(O)c1 [ETHYL CAFFEATE]
IC50 [1]: 1.75 µg/mL (≈ 8.4 µM) | IC50 [2]: 1.81 µg/mL (≈ 8.69 µM) | IC50 [3]: 1.99 µg/mL (≈ 9.56 µM)

SMILES: CCCOC(=O)/C=C/c1ccc(O)c(O)c1
IC50 [1]: 2.46 µg/mL (≈ 11.1 µM) | IC50 [2]: 1.89 µg/mL (≈ 8.5 µM) | IC50 [3]: 2.12 µg/mL (≈ 9.54 µM)

SMILES: O=C(/C=C/c1ccc(O)c(O)c1)Nc1ccccc1
IC50 [1]: 4.23 µg/mL (≈ 16.6 µM) | IC50 [2]: 5 µg/mL (≈ 19.6 µM) | IC50 [3]: 4.26 µg/mL (≈ 16.7 µM)

SMILES: O=C1c2ccccc2C(=O)c2c(O)ccc(O)c21 [QUINIZARIN]
IC50 [1]: > 30 µg/mL | IC50 [2]: > 30 µg/mL | IC50 [3]: > 30 µg/mL

SMILES: COc1cccc2c1C(=O)c1c(O)c3c(c(O)c1C2=O)C[C@@](O)(C(=O)CO)C[C@@H]3O[C@H]1C[C@H](N)[C@H](O)[C@H](C)O1 [DOXORUBICIN]
IC50 [4]: 0.29 µg/mL (≈ 0.534 µM)

SMILES: COC(=O)CCc1cc(O)ccc1O
IC50 [1]: 4.43 µg/mL (≈ 22.6 µM) | IC50 [2]: 5 µg/mL (≈ 25.5 µM) | IC50 [3]: 4.59 µg/mL (≈ 23.4 µM)

SMILES: O=C/C=C/c1ccc(O)c(O)c1 [CAFFEOYL ALDEHYDE]
IC50 [1]: > 30 µg/mL | IC50 [2]: > 30 µg/mL | IC50 [3]: > 30 µg/mL

SMILES: CCOC(=O)/C=C/c1cc(OC)c2c(c1OC)C(=O)c1ccccc1C2=O
IC50 [1]: > 30 µg/mL | IC50 [2]: > 30 µg/mL | IC50 [3]: > 30 µg/mL

SMILES: CCOC(=O)/C=C/c1cc(O)c2c(c1O)C(=O)c1ccccc1C2=O
IC50 [1]: 0.32 µg/mL (≈ 0.946 µM) | IC50 [2]: 0.91 µg/mL (≈ 2.69 µM) | IC50 [3]: 0.71 µg/mL (≈ 2.1 µM)

SMILES: COC(=O)/C=C/c1cc(O)c2c(c1O)C(=O)c1ccccc1C2=O
IC50 [1]: 0.18 µg/mL (≈ 0.555 µM) | IC50 [4]: 0.69 µg/mL (≈ 2.13 µM) | IC50 [5]: 0.55 µg/mL (≈ 1.7 µM) | IC50 [6]: 0.66 µg/mL (≈ 2.04 µM) | IC50 [7]: 0.09 µg/mL (≈ 0.278 µM) | IC50 [8]: 0.45 µg/mL (≈ 1.39 µM) | IC50 [9]: 2.72 µg/mL (≈ 8.39 µM) | IC50 [10]: 0.11 µg/mL (≈ 0.339 µM) | IC50 [11]: 1.13 µg/mL (≈ 3.48 µM) | IC50 [12]: 0.46 µg/mL (≈ 1.42 µM) | IC50 [13]: 0.39 µg/mL (≈ 1.2 µM) | IC50 [2]: 0.87 µg/mL (≈ 2.68 µM) | IC50 [14]: 0.74 µg/mL (≈ 2.28 µM) | IC50 [15]: 0.95 µg/mL (≈ 2.93 µM) | IC50 [16]: 0.42 µg/mL (≈ 1.3 µM) | IC50 [17]: 0.73 µg/mL (≈ 2.25 µM) | IC50 [3]: 0.65 µg/mL (≈ 2 µM) | IC50 [18]: 0.89 µg/mL (≈ 2.74 µM)
